Experimental data from PMC10745768, “Stereoselective Synthesis and Antiproliferative Activity of Steviol-Based Diterpene 1,3-Aminoalcohol Regioisomers” (Molecules, 2023).

How the values were obtained:
MCF-7 cells = assay: MTT antiproliferative assay, MCF-7; format: cell-based; details: Homo sapiens, MCF7; for inhibition at 10 µM: MCF-7, 10 μM; for inhibition at 10 µM / inhibition at 30 µM: 72 h, read-out: Growth inhibition (%) ± SEM; for inhibition at 30 µM: MCF-7, 30 μM
Procedure: (§1) The in vitro anticancer effects of the presented compounds were assessed using the standard MTT [3-(4,5-dimethylthiazol2-yl)-2,5-diphenyltetrazolium bromide] assay on the following human cancer cell lines: cervical (HeLa and SiHa), breast (MCF-7 and MDA-MB-231) and ovarian cancer (A2780). The selectivity of the tested compounds was determined on murine embryonal fibroblast cells (NIH/3T3). The utilised cell lines were purchased from the European Collection of Cell Cultures (Salisbury, UK). The cells were cultivated in Eagle’s minimal essential medium supplemented with 10% fetal bovine serum, 1% non-essential amino acids and 1% antibiotic-antimycotic complex (penicillin, streptomycin, amphotericin B) at 37 °C in a humidified atmosphere containing 5% CO2. All media and supplements were purchased from Lonza Group Ltd. (Basel, Switzerland). The cancer cells were seeded into 96-well plates (5000 cells/well) and incubated overnight, and the test compounds were applied in two different concentrations (10 µM and 30 µM) and incubated for another 72 h under cell-culturing conditions. […] After 72 h, 20 µL of the 5 mg/mL MTT solution was added to each well, and the plates were incubated for 4 h. The medium was removed, and the formazan crystals produced by the mitochondrial activity were dissolved in dimethyl sulfoxide (DMSO) via shaking at 37 °C for 30 min. The absorbances were measured at 545 nm using a microplate reader (SPECTROStar Nano, BMG Labtech, Offenburg, Germany). The reference agent was cisplatin, which is a widely used cytotoxic agent. The IC50 values were calculated using sigmoid curve fitting. Two independent experiments were performed with five parallel wells for each condition. Calculations were performed using the GraphPad Prism 9 software (GraphPad Software Inc., San Diego, CA, USA).

NIH/3T3 fibroblast cells = assay: MTT assay on non-malignant fibroblasts (selectivity); format: cell-based, murine; details: Mus musculus, NIH3T3; for inhibition at 10 µM: NIH/3T3, 10 μM; for inhibition at 10 µM / inhibition at 30 µM: 72 h, read-out: Growth inhibition (%) ± SEM; for inhibition at 30 µM: NIH/3T3, 30 μM
Procedure: as §1

HeLa cells = assay: MTT antiproliferative assay, HeLa; format: cell-based; details: Homo sapiens, 72 h; for inhibition at 10 µM / inhibition at 30 µM: read-out: Growth inhibition (%) ± SEM
Procedure: as §1

SiHa cells = assay: MTT antiproliferative assay, SiHa; format: cell-based; details: Homo sapiens, 72 h; for inhibition at 10 µM / inhibition at 30 µM: read-out: Growth inhibition (%) ± SEM
Procedure: as §1

A2780 cells = assay: MTT antiproliferative assay, A2780; format: cell-based; details: Homo sapiens; for inhibition at 10 µM: A2780, 10 μM; for inhibition at 10 µM / inhibition at 30 µM: 72 h, read-out: Growth inhibition (%) ± SEM; for inhibition at 30 µM: A2780, 30 μM
Procedure: as §1

[1] = tested on: human cancer cell lines (HeLa, SiHa, MCF-7, MDA-MB-231, A2780); assay: MTT antiproliferative assay, panel of malignant cells; format: cell-based; details: for antiproliferative action at higher concentration (in words): 30 μM
Procedure: as §1

MDA-MB-231 cells = assay: MTT antiproliferative assay, MDA-MB-231; format: cell-based; details: Homo sapiens; for inhibition at 10 µM: MDA-MB-231, 10 μM; for inhibition at 10 µM / inhibition at 30 µM: 72 h, read-out: Growth inhibition (%) ± SEM; for inhibition at 30 µM: MDA-MB-231, 30 μM
Procedure: as §1

SMILES	inhibition at 10 µM (MCF-7 cells) [%]	inhibition at 30 µM (MCF-7 cells) [%]	inhibition at 10 µM (NIH/3T3 fibroblast cells) [%]	inhibition at 30 µM (NIH/3T3 fibroblast cells) [%]	inhibition at 10 µM (HeLa cells) [%]	inhibition at 30 µM (HeLa cells) [%]	inhibition at 10 µM (SiHa cells) [%]	inhibition at 30 µM (SiHa cells) [%]	melting point [°C]	inhibition at 10 µM (A2780 cells) [%]	inhibition at 30 µM (A2780 cells) [%]	antiproliferative action at higher concentration (in words) [1]	inhibition at 10 µM (MDA-MB-231 cells) [%]	inhibition at 30 µM (MDA-MB-231 cells) [%]	also measured
COC(=O)[C@]1(C)CCC[C@@]2(C)[C@@H]3CC[C@@]4(CO)C[C@]3(CC[C@@H]21)C[C@H]4N [Compound 6, (4R,4aS,6aR,8R,9R,11aR,11bS)-Methyl 8-amino-9-(hydroxymethyl)-4,11b-dimethyltetradecahydro-6a,9-methanocyclohepta[a]naphthalene-4-carboxylate]	36.4 ± 3.48	98.58 ± 0.22	22.1 ± 1.54	98.27 ± 0.37	23.2 ± 1.97	93.94 ± 0.55	< 20	68.24 ± 0.61	166 to 170	24.8 ± 5.19	82.5 ± 4.66	pronounced cell growth inhibition	25.8 ± 2.49	97.6 ± 0.67	–
COC(=O)[C@]1(C)CCC[C@@]2(C)[C@@H]3CC[C@@]4(CO)C[C@]3(CC[C@@H]21)C[C@@H]4N [Compound 7, (4R,4aS,6aR,8S,9R,11aR,11bS)-Methyl 8-amino-9-(hydroxymethyl)-4,11b-dimethyltetradecahydro-6a,9-methanocyclohepta[a]naphthalene-4-carboxylate]	43.1 ± 3.79	99.33 ± 0.24	< 20	97.76 ± 0.7	24.9 ± 2.49	96.89 ± 0.54	< 20	88.6 ± 2.01	127 to 130	27 ± 4.31	91.6 ± 1.97	pronounced cell growth inhibition	28 ± 1.84	97.67 ± 0.67	–
COC(=O)[C@]1(C)CCC[C@@]2(C)[C@@H]3CC[C@@]4(CO)C[C@]3(CC[C@@H]21)C[C@H]4N[C@@H](C)c1ccc2ccccc2c1 [Compound 16, (4R,4aS,6aR,8R,9R,11aR,11bS)-Methyl 9-(hydroxymethyl)-4,11b-dimethyl-8-(((S)-1-(naphthalen-2-yl)ethyl)amino)tetradecahydro-6a,9-methanocyclohepta[a]naphthalene-4-carboxylate]	81 ± 2.03	97.95 ± 0.56	< 20	96.83 ± 0.66	55.4 ± 2.81	95.7 ± 1.12	80 ± 1.41	89.4 ± 1.03	105 to 108	97.6 ± 2.81	100.3 ± 0.57	–	84.4 ± 2.92	93.6 ± 1.23	IC50 (MCF-7 cells; MCF-7, 72 h, read-out: calculated IC50): 3.88 µM; IC50 (NIH/3T3 fibroblast cells; NIH/3T3, 72 h, read-out: calculated IC50): 17.4 µM; IC50 (HeLa cells; read-out: calculated IC50): 3.4 µM; IC50 (SiHa cells; read-out: calculated IC50): 6.33 µM; IC50 (A2780 cells; A2780, 72 h, read-out: calculated IC50): 4.43 µM; IC50 ([1]; Homo sapiens, range over the five cancer cell lines): 3.44 to 6.33 µM; IC50 (MDA-MB-231 cells; MDA-MB-231, 72 h, read-out: calculated IC50): 4.51 µM
COC(=O)[C@]1(C)CCC[C@@]2(C)[C@@H]3CC[C@@]4(CN=[N+]=[N-])C[C@]3(CC[C@@H]21)CC4=O [Compound 19, (4R,4aS,6aR,9S,11aR,11bS)-Methyl 9-(azidomethyl)-4,11b-dimethyl-8-oxotetradecahydro-6a,9-methanocyclohepta[a]naphthalene-4-carboxylate]	< 20	38 ± 1.36	< 20	< 20	31.6 ± 1.34	46.86 ± 0.27	< 20	< 20	97 to 99	< 20	41.7 ± 1.99	no substantial action	< 20	< 20	–
COC(=O)[C@]1(C)CCC[C@@]2(C)[C@@H]3CC[C@@]4(CN=[N+]=[N-])C[C@]3(CC[C@@H]21)C[C@H]4O [Compound 20, (4R,4aS,6aR,8R,9S,11aR,11bS)-Methyl 9-(azidomethyl)-8-hydroxy-4,11b-dimethyltetradecahydro-6a,9-methanocyclohepta[a]naphthalene-4-carboxylate]	< 20	30.7 ± 0.93	< 20	< 20	< 20	< 20	< 20	< 20	72 to 74	< 20	27 ± 2.25	no substantial action	< 20	< 20	–
COC(=O)[C@]1(C)CCC[C@@]2(C)[C@@H]3CC[C@@]4(Cn5cc(Cc6ccccc6)nn5)C[C@]3(CC[C@@H]21)CC4=O [Compound 34, (4R,4aS,6aR,9S,11aR,11bS)-Methyl 9-((4-benzyl-1H-1,2,3-triazol-1-yl)methyl)-4,11b-dimethyl-8-oxotetradecahydro-6a,9-methanocyclohepta[a]naphthalene-4-carboxylate]	37.5 ± 2.1	81.3 ± 2.02	< 20	72.5 ± 0.96	< 20	75.2 ± 1.26	< 20	58.8 ± 2.24	172 to 176	31.8 ± 1.6	89.59 ± 0.45	–	< 20	50.1 ± 2.41	–
COC(=O)[C@]1(C)CCC[C@@]2(C)[C@@H]3CC[C@@]4(Cn5cc(-c6ccccc6)nn5)C[C@]3(CC[C@@H]21)C[C@H]4O [Compound 35, (4R,4aS,6aR,8R,9S,11aR,11bS)-Methyl 8-hydroxy-4,11b-dimethyl-9-((4-phenyl-1H-1,2,3-triazol-1-yl)methyl)tetradecahydro-6a,9-methanocyclohepta[a]naphthalene-4-carboxylate]	70 ± 3.11	88.79 ± 0.44	54.8 ± 1.4	93 ± 1.01	< 20	88.11 ± 0.75	< 20	81.4 ± 2.84	154 to 156	43.2 ± 1.63	97.37 ± 0.38	–	< 20	92.44 ± 0.59	–
COC(=O)[C@]1(C)CCC[C@@]2(C)[C@@H]3CC[C@@]4(Cn5cc(Cc6ccccc6)nn5)C[C@]3(CC[C@@H]21)C[C@H]4O [Compound 36, (4R,4aS,6aR,8R,9S,11aR,11bS)-Methyl 9-((4-benzyl-1H-1,2,3-triazol-1-yl)methyl)-8-hydroxy-4,11b-dimethyltetradecahydro-6a,9-methanocyclohepta[a]naphthalene-4-carboxylate]	45.9 ± 3.4	91.8 ± 0.74	< 20	92.91 ± 0.87	< 20	89.32 ± 0.63	< 20	79.4 ± 3.17	112 to 114	29.3 ± 1.68	96.31 ± 0.53	–	< 20	91.38 ± 0.65	–
